pIC50: −log10 of the molar value.
Columns and labels:
in vitro [1] = conditions: rat, liver microsomes
[2] = biological target: cAMP and cAMP-inhibited cGMP 3',5'-cyclic phosphodiesterase 10A (Homo sapiens, UniProt Q9Y233)
Cytochrome P450 1A2 = biological target: T1, Cytochrome P450 1A2 (Homo sapiens, UniProt P05177); assay: Inhibition of CYP1A2 (unknown origin); format: ADME
T1 sequence (P05177 whole entry): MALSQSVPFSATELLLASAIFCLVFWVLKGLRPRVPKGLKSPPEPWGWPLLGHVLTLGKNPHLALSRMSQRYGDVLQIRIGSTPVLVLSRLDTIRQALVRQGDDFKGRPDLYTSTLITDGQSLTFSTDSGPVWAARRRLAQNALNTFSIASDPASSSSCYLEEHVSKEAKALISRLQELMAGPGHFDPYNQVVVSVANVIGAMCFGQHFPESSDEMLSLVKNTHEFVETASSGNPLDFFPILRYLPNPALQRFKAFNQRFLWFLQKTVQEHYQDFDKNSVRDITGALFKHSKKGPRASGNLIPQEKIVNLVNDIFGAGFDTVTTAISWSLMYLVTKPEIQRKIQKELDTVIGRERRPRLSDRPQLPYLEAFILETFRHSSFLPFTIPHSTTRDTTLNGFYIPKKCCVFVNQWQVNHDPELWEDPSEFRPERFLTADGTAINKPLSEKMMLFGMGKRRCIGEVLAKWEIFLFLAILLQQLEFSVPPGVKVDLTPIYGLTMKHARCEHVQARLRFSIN

[3] = biological target: Dual 3',5'-cyclic-AMP and -GMP phosphodiesterase 11A (Homo sapiens, UniProt Q9HCR9); assay: Inhibition of PDE11A4 (588 to 911 residues) (unknown origin) using 3H-cGMP/3H-cAMP as substrate incubated for 15 mins by liquid scintillation counter analysis
Chain of Dual 3',5'-cyclic-AMP and -GMP phosphodiesterase 11A (Q9HCR9 whole entry, the tested form may be a part): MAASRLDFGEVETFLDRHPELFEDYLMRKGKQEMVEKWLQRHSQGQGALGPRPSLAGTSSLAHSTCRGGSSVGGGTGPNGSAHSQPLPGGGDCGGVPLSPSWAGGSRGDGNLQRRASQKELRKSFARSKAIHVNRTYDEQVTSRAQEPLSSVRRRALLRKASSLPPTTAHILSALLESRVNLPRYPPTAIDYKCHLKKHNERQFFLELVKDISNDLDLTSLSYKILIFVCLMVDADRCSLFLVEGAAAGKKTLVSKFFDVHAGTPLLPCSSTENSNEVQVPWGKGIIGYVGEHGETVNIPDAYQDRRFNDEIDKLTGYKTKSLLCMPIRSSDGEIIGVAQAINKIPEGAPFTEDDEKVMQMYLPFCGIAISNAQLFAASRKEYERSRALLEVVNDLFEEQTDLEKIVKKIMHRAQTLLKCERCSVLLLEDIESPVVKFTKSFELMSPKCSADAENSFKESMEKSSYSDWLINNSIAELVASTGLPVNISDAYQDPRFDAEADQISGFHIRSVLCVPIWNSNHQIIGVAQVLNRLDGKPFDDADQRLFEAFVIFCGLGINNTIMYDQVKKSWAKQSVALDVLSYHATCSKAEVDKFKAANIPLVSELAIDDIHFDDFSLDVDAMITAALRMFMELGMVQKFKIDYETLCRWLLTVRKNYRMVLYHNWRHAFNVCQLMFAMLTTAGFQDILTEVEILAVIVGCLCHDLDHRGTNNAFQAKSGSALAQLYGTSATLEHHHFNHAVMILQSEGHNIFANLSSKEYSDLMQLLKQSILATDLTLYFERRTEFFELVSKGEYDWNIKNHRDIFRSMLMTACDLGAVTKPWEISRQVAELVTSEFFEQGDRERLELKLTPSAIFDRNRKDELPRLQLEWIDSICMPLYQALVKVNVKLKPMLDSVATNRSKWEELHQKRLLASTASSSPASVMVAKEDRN

[4] = biological target: 3',5'-cyclic-AMP phosphodiesterase 4D (Homo sapiens, UniProt Q08499); assay: Inhibition of PDE4D (86 to 413 residues) (unknown origin) using 3H-cAMP as substrate incubated for 15 mins by liquid scintillation counter analysis
Chain of 3',5'-cyclic-AMP phosphodiesterase 4D (Q08499 whole entry, the tested form may be a part): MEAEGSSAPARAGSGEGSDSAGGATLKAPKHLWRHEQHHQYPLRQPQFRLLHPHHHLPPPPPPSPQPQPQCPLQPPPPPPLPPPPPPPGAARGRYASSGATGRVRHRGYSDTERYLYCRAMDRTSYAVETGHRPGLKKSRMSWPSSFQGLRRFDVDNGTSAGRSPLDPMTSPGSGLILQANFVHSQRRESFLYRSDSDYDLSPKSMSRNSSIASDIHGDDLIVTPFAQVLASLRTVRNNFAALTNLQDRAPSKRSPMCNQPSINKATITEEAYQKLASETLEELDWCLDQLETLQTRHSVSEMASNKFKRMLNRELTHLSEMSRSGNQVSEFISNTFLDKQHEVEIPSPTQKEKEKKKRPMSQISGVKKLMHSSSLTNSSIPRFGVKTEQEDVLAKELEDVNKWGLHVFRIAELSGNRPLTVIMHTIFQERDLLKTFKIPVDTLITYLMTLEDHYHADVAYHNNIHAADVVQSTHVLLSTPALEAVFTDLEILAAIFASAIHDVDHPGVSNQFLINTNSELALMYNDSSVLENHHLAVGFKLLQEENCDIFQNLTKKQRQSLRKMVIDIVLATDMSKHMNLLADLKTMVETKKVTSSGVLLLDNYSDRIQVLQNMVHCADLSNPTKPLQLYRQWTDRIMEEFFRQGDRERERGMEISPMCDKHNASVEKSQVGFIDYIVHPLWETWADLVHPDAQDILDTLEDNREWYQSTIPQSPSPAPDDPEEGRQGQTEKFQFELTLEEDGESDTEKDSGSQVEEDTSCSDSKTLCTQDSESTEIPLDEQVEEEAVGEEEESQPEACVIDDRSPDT

[5] = biological target: cGMP-specific 3',5'-cyclic phosphodiesterase (Homo sapiens, UniProt O76074); assay: Inhibition of PDE5A1 (535 to 860 residues) (unknown origin) extracted from Escherichia coli BL21 using 3H-cGMP as substrate incubated for 15 mins by liquid scintillation counter analysis
Cytochrome P450 2C19 = Cytochrome P450 2C19 (Homo sapiens, UniProt P33261); assay: Inhibition of CYP2C19 (unknown origin); format: ADME
[6] = biological target: Cone cGMP-specific 3',5'-cyclic phosphodiesterase subunit alpha' (Homo sapiens, UniProt P51160); assay: Inhibition of PDE6C (1 to 858 residues) (unknown origin) using 3H-cGMP as substrate incubated for 15 mins by liquid scintillation counter analysis
Cytochrome P450 3A4 = Cytochrome P450 3A4 (Homo sapiens, UniProt P08684); assay: Inhibition of CYP3A4 (unknown origin); format: ADME
Chain of Cytochrome P450 3A4 (P08684 whole entry): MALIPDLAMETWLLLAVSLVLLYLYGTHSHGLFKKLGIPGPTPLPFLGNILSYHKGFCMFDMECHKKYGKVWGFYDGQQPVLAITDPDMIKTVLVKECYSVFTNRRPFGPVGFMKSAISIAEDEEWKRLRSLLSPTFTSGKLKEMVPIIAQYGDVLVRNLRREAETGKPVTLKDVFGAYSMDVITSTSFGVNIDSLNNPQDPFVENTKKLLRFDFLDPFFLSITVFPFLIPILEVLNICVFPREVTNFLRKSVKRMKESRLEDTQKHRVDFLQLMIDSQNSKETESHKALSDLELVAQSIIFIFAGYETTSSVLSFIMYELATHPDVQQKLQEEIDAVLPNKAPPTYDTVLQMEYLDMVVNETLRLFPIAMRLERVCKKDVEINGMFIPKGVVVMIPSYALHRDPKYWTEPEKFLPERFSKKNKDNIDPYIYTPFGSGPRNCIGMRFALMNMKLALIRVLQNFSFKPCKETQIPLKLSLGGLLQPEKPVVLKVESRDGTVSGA

Cytochrome P450 2C9 = Cytochrome P450 2C9 (Homo sapiens, UniProt P11712); assay: Inhibition of CYP2C9 (unknown origin); format: ADME
Chain of Cytochrome P450 2C9 (P11712 whole entry, the tested form may be a part): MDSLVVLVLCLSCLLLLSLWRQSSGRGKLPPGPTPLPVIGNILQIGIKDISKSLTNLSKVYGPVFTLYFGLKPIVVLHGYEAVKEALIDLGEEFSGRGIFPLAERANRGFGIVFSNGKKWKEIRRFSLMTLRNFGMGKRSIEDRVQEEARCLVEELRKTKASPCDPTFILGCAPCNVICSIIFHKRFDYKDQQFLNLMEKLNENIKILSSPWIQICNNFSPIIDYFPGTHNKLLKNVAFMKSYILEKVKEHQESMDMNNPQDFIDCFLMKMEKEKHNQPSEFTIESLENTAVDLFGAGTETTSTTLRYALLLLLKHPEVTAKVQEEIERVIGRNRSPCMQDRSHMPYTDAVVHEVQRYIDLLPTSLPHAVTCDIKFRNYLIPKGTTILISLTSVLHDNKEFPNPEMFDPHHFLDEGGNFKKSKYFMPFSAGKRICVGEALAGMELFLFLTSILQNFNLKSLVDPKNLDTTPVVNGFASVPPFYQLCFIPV

[7] = biological target: Dual specificity calcium/calmodulin-dependent 3',5'-cyclic nucleotide phosphodiesterase 1C (Homo sapiens, UniProt Q14123); assay: Inhibition of PDE1C (147 to 531 residues) (unknown origin) using 3H-cGMP/3H-cAMP as substrate incubated for 15 mins by liquid scintillation counter analysis
[8] = biological target: cGMP-inhibited 3',5'-cyclic phosphodiesterase 3A (Homo sapiens, UniProt Q14432); assay: Inhibition of PDE3A (679 to 1087 residues) (unknown origin) using 3H-cAMP as substrate incubated for 15 mins by liquid scintillation counter analysis
Chain of cGMP-inhibited 3',5'-cyclic phosphodiesterase 3A (Q14432 whole entry, the tested form may be a part): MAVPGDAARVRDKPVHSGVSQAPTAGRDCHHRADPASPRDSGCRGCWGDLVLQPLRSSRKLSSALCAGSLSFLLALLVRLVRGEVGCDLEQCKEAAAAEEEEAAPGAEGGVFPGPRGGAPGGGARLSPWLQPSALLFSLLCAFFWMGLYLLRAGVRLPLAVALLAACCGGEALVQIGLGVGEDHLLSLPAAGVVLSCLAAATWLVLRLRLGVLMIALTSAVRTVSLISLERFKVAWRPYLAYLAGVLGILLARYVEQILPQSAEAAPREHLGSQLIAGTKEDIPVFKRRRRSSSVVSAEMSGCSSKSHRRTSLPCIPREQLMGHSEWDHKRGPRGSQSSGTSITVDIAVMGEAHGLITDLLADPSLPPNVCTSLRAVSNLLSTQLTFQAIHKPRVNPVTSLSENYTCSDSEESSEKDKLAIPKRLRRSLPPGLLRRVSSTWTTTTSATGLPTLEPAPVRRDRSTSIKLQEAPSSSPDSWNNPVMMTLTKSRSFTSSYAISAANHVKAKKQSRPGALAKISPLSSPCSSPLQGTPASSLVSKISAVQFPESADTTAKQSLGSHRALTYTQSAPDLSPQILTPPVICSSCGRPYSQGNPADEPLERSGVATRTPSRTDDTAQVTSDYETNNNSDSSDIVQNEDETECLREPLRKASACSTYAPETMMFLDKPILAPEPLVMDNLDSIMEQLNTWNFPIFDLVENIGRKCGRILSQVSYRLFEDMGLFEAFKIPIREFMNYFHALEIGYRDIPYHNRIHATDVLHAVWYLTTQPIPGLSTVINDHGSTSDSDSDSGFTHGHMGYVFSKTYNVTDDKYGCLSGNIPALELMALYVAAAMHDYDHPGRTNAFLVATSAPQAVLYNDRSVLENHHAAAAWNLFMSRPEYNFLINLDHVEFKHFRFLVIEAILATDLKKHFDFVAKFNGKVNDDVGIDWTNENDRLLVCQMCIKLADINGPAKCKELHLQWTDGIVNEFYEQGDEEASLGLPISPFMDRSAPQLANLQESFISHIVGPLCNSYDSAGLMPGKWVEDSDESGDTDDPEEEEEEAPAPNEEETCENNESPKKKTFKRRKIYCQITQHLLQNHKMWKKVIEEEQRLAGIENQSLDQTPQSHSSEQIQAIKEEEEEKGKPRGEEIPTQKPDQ

[9] = biological target: cGMP-dependent 3',5'-cyclic phosphodiesterase (Homo sapiens, UniProt O00408); assay: Inhibition of PDE2A (580 to 919 residues) (unknown origin) using 3H-cGMP as substrate incubated for 15 mins by liquid scintillation counter analysis
[10] = biological target: High affinity cGMP-specific 3',5'-cyclic phosphodiesterase 9A (Homo sapiens, UniProt O76083); assay: Inhibition of recombinant PDE9A2 (181 to 506 residues) (unknown origin) extracted from Escherichia coli BL21 using 3H-cGMP as substrate incubated for 15 mins by liquid scintillation counter analysis
Chain of High affinity cGMP-specific 3',5'-cyclic phosphodiesterase 9A (O76083 whole entry, the tested form may be a part): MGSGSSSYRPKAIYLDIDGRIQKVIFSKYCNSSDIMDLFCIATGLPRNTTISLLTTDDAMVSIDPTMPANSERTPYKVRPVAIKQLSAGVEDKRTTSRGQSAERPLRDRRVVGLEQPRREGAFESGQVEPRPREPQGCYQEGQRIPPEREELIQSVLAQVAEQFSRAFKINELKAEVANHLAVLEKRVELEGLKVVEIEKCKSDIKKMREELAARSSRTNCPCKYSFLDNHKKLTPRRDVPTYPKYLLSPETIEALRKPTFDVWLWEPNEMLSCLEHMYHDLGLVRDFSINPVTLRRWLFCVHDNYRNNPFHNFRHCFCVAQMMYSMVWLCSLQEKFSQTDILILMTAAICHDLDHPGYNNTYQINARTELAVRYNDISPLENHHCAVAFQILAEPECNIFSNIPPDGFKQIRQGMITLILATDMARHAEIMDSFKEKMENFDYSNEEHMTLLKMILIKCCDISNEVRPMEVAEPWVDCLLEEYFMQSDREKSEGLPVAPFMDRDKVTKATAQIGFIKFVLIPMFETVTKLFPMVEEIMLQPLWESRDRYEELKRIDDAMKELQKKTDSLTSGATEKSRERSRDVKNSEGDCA

Cytochrome P450 2D6 = Cytochrome P450 2D6 (Homo sapiens, UniProt P10635); assay: Inhibition of CYP2D6 (unknown origin); format: ADME
Chain of Cytochrome P450 2D6 (P10635 whole entry, the tested form may be a part): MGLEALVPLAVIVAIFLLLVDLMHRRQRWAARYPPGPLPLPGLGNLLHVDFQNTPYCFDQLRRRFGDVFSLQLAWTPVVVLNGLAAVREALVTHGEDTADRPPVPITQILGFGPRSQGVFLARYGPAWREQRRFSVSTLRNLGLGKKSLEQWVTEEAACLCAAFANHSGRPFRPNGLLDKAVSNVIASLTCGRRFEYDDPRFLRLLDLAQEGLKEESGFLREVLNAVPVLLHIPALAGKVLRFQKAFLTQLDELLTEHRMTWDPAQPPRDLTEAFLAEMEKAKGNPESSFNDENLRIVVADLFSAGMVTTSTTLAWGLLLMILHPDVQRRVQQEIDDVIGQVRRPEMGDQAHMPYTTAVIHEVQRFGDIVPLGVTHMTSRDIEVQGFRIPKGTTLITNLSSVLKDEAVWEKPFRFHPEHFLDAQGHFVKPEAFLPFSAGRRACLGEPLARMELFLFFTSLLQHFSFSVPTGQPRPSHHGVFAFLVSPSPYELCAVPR

[11] = biological target: High affinity 3',5'-cyclic-AMP phosphodiesterase 7A (Homo sapiens, UniProt Q13946); assay: Inhibition of PDE7A1 (130 to 482 residues) (unknown origin) using 3H-cAMP as substrate incubated for 15 mins by liquid scintillation counter analysis
in vitro [12] = conditions: PAMPA

Row | SMILES | half-life (in vitro [1]) [min] | pIC50 [2] | pIC50 (Cytochrome P450 1A2) | pIC50 [3] | pIC50 [4] | pIC50 [5] | pIC50 (Cytochrome P450 2C19) | pIC50 [6] | pIC50 (Cytochrome P450 3A4) | pIC50 (Cytochrome P450 2C9) | pIC50 [7] | pIC50 [8] | pIC50 [9] | pIC50 [10] | pIC50 (Cytochrome P450 2D6) | pIC50 [11] | Papp (in vitro [12]) [×10⁻⁶ cm/s]
1 | Cc1ccc2c(c1)nc(C1CN(c3nc(Cl)nc4ccccc34)C1)n2-c1ccccc1 | 0.72 | 7.51 |  |  |  |  |  |  |  |  |  |  |  |  |  |  | 
2 | CCOC(=O)c1c(C2CN(c3cc(C(=O)NCCN(CC)CC)c4ccccc4n3)C2)nc2ccccn12 |  |  | < 4.52 | < 5.00 | 5.89 | < 5.00 | < 4.52 | < 5.00 | < 4.52 | < 4.52 | < 5.00 | < 5.00 | < 5.00 | < 5.00 | 5.01 | < 5.00 | 
3 | Cc1ccc2c(c1)nc(/C=C/c1cccc3cccnc13)n2-c1cccc(OCCCN2CCN(C)CC2)c1 | 25 |  |  |  |  |  |  |  | 6.68 |  |  |  |  |  |  |  | 1.47
